system: E. coli TOP10; assay: Suicide expression system (SES) growth inhibition; type: cell-based; settings: Table 4; variants of SEQ ID NO:10, re-tested in the Bioscreen C

| Substance | Growth inhibition (%) |
| --- | --- |
| 132 (RRRPFRPPFRPPLRPPVRPPVRPPIRP; Synthetic antimicrobial peptide) [compound 132] | 72 |
| 133 (RRRPFRPPIRPPFRPPVRPPIRPPVRP; Synthetic antimicrobial peptide) [compound 133] | 62 |
| 134 (RRRPFRPPFRPPFRPPVRPPLRPPVRP; Synthetic antimicrobial peptide) [compound 134] | 68 |
| 135 (RRRPIRPPIRPPIRPPIRPPIRPPLRP; Synthetic antimicrobial peptide) [compound 135] | 38 |
| 136 (RRRPFRPPFRPPIRPPFRPPIRPPLRP; Synthetic antimicrobial peptide) [compound 136] | 77 |
| 137 (RRRPLRPPFRPPFRPPIRPPFRPPVRP; Synthetic antimicrobial peptide) [compound 137] | 58 |
| 138 (RRRPLRPPFRPPVRPPFRPPFRPPFRP; Synthetic antimicrobial peptide) [compound 138] | 78 |
| 139 (RRRPFRPPFRPPIRPPFRPPIRPPVRP; Synthetic antimicrobial peptide) [compound 139] | 67 |
| 140 (RRRPIRPPIRPPFRPPVRPPVRPPFRP; Synthetic antimicrobial peptide) [compound 140] | 70 |
| 141 (RRRPIRPPIRPPFRPPFRPPLRPPIRP; Synthetic antimicrobial peptide) [compound 141] | 65 |
| 142 (RRRPLRPPIRPPVRPPFRPPVRPPFRP; Synthetic antimicrobial peptide) [compound 142] | 70 |
| 143 (RRRPFRPPVRPPVRPPFRPPLRPPVRP; Synthetic antimicrobial peptide) [compound 143] | 43 |
| 144 (RRRPIRPPLRPPVRPPVRPPFRPPFRP; Synthetic antimicrobial peptide) [compound 144] | 64 |
| 145 (RRRPLRPPVRPPFRPPFRPPLRPPFRP; Synthetic antimicrobial peptide) [compound 145] | 59 |
| 146 (RRRPLRPPFRPPIRPPFRPPFRPPLRP; Synthetic antimicrobial peptide) [compound 146] | 68 |
| 147 (RRRPFRPPFRPPIRPPVRPPVRPPFRP; Synthetic antimicrobial peptide) [compound 147] | 79 |
| 148 (RRRPIRPPFRPPFRPPFRPPFRPPLRP; Synthetic antimicrobial peptide) [compound 148] | 76 |
| 149 (RRRPIRPPIRPPFRPPFRPPVRPPVRP; Synthetic antimicrobial peptide) [compound 149] | 62 |
| 150 (RRRPIRPPIRPPFRPPIRPPFRPPVRP; Synthetic antimicrobial peptide) [compound 150] | 68 |
| 151 (RRRPLRPPVRPPLRPPVRPPFRPPFRP; Synthetic antimicrobial peptide) [compound 151] | 68 |
| 152 (RRRPFRPPFRPPFRPPFRPPVRPPIRP; Synthetic antimicrobial peptide) [compound 152] | 75 |
| 153 (RRRPIRPPFRPPIRPPVRPPIRPPFRP; Synthetic antimicrobial peptide) [compound 153] | 68 |

| Substance | Growth inhibition (%) |
| --- | --- |
| 154 (RRRPFRPPFRPPVRPPVRPPFRPPFRP; Synthetic antimicrobial peptide) [compound 154] | 75 |
| 155 (RRRPFRPPFRPPFRPPFRPPFRPPLRP; Synthetic antimicrobial peptide) [compound 155] | 83 |
| 156 (RRRPFRPPLRPPFRPPFRPPIRPPFRP; Synthetic antimicrobial peptide) [compound 156] | 67 |
| 157 (RRRPIRPPFRPPIRPPFRPPVRPPLRP; Synthetic antimicrobial peptide) [compound 157] | 64 |
| 158 (RRRPIRPPFRPPIRPPIRPPIRPPVRP; Synthetic antimicrobial peptide) [compound 158] | 67 |
| 159 (RRRPVRPPIRPPIRPPVRPPLRPPVRP; Synthetic antimicrobial peptide) [compound 159] | 35 |
| 160 (RRRPFRPPVRPPFRPPVRPPFRPPFRP; Synthetic antimicrobial peptide) [compound 160] | 77 |
| 161 (RRRPFRPPVRPPIRPPVRPPFRPPFRP; Synthetic antimicrobial peptide) [compound 161] | 78 |
| 162 (RRRPFRPPIRPPFRPPFRPPLRPPLRP; Synthetic antimicrobial peptide) [compound 162] | 68 |
| 163 (RRRPIRPPFRPPFRPPFRPPIRPPIRP; Synthetic antimicrobial peptide) [compound 163] | 79 |
| 164 (RRRPFRPPIRPPLRPPFRPPFRPPFRP; Synthetic antimicrobial peptide) [compound 164] | 78 |
| 165 (RRRPFRPPLRPPFRPPVRPPLRPPVRP; Synthetic antimicrobial peptide) [compound 165] | 65 |
| 166 (RRRPLRPPVRPPFRPPVRPPVRPPLRP; Synthetic antimicrobial peptide) [compound 166] | 55 |
| 167 (RRRPFRPPLRPPFRPPLRPPLRPPVRP; Synthetic antimicrobial peptide) [compound 167] | 58 |
| 168 (RRRPLRPPFRPPIRPPVRPPLRPPFRP; Synthetic antimicrobial peptide) [compound 168] | 71 |
| 169 (RRRPIRPPLRPPVRPPFRPPVRPPFRP; Synthetic antimicrobial peptide) [compound 169] | 67 |
| 170 (RRRPIRPPFRPPFRPPFRPPVRPPFRP; Synthetic antimicrobial peptide) [compound 170] | 80 |
| 171 (RRRPIRPPIRPPIRPPIRPPFRPPFRP; Synthetic antimicrobial peptide) [compound 171] | 77 |
| 172 (RRRPFRPPIRPPFRPPIRPPVRPPFRP; Synthetic antimicrobial peptide) [compound 172] | 82 |
| 173 (RRRPLRPPIRPPLRPPVRPPFRPPFRP; Synthetic antimicrobial peptide) [compound 173] | 81 |
| 174 (RRRPIRPPIRPPFRPPLRPPFRPPFRP; Synthetic antimicrobial peptide) [compound 174] | 80 |
| 175 (RRRPFRPPVRPPFRPPLRPPFRPPFRP; Synthetic antimicrobial peptide) [compound 175] | 77 |

| Substance | Growth inhibition (%) |
| --- | --- |
| 176 (RRRPLRPPVRPPIRPPIRPPFRPPFRP; Synthetic antimicrobial peptide) [compound 176] | 81 |
| 177 (RRRPFRPPIRPPFRPPIRPPVRPPIRP; Synthetic antimicrobial peptide) [compound 177] | 75 |
| 178 (RRRPLRPPFRPPVRPPFRPPFRPPFRP; Synthetic antimicrobial peptide) [compound 178] | 81 |
| 179 (RRRPFRPPIRPPIRPPFRPPFRPPFRP; Synthetic antimicrobial peptide) [compound 179] | 87 |
| 180 (RRRPLRPPIRPPIRPPIRPPFRPPFRP; Synthetic antimicrobial peptide) [compound 180] | 76 |
| 181 (RRRPIRPPIRPPFRPPFRPPFRPPFRP; Synthetic antimicrobial peptide) [compound 181] | 83 |
| 182 (RRRPFRPPIRPPFRPPIRPPVRPPFRP; Synthetic antimicrobial peptide) [compound 182] | 83 |
| 183 (RRRPFRPPVRPPLRPPFRPPFRPPFRP; Synthetic antimicrobial peptide) [compound 183] | 80 |
| 184 (RRRPIRPPIRPPFRPPLRPPFRPPFRP; Synthetic antimicrobial peptide) [compound 184] | 78 |
| 185 (RRRPLRPPIRPPIRPPFRPPFRPPFRP; Synthetic antimicrobial peptide) [compound 185] | 79 |
| 186 (RRRPIRPPIRPPIRPPFRPPFRPPFRP; Synthetic antimicrobial peptide) [compound 186] | 77 |
| 187 (RRRPIRPPFRPPFRPPVRPPFRPPFRP; Synthetic antimicrobial peptide) [compound 187] | 85 |
| 188 (RRRPFRPPFRPPIRPPVRPPVRPPFRP; Synthetic antimicrobial peptide) [compound 188] | 83 |
| 189 (RRRPFRPPFRPPIRPPVRPPIRPPFRP; Synthetic antimicrobial peptide) [compound 189] | 79 |
| 190 (RRRPFRPPIRPPFRPPIRPPFRPPFRP; Synthetic antimicrobial peptide) [compound 190] | 83 |
| 191 (RRRPFRPPFRPPIRPPFRPPVRPPFRP; Synthetic antimicrobial peptide) [compound 191] | 77 |
| 192 (RRRPFRPPFRPPFRPPVRPPVRPPFRP; Synthetic antimicrobial peptide) [compound 192] | 92 |
| 193 (RRRPFRPPIRPPFRPPIRPPFRPPFRP; Synthetic antimicrobial peptide) [compound 193] | 81 |
| 194 (RRRPLRPPFRPPFRPPIRPPFRPPFRP; Synthetic antimicrobial peptide) [compound 194] | 81 |
| 195 (RRRPFRPPIRPPFRPPVRPPVRPPVRP; Synthetic antimicrobial peptide) [compound 195] | 76 |
| 196 (RRRPFRPPLRPPIRPPIRPPFRPPFRP; Synthetic antimicrobial peptide) [compound 196] | 77 |

From patent US7833967B2, “Synthetic antimicrobial polypeptides” (priority 2003, dated 2010)
